# Results as given in ChEMBL document CHEMBL1126337, “Cholecystokinin analogues: The ergopeptine alkaloids as models of the active conformation of CCK” (Bioorg Med Chem Lett, 1992).
# Peptide text beside a SMILES is read from it. * marks the point of attachment. NHPhenethyl = c1ccc(CCN*)cc1; Boc = CC(C)(C)OC(=O)*
# How the values were obtained:
# [1] = molecular target: T1, Cholecystokinin receptor type A (Mus musculus, UniProt O08786); assay: Concentration of compound required to inhibit binding of [125I]J-BH-CCK-8 radioligand to CCKA in mouse pancreatic membranes; type: cell membranes
# T1 sequence (O08786 whole entry): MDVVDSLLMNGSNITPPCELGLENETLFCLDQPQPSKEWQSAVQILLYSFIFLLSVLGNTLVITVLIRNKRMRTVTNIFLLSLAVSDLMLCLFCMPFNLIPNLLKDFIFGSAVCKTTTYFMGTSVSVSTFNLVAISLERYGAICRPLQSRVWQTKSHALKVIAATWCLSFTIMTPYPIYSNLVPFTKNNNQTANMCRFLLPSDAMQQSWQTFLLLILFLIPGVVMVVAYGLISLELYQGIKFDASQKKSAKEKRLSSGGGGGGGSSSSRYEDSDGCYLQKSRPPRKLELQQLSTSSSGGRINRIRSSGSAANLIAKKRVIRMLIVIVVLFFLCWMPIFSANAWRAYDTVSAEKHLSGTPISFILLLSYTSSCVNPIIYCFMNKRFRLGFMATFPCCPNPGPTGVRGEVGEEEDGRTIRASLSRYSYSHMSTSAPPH
# [2] = molecular target: T2, Gastrin/cholecystokinin type B receptor (Mus musculus, UniProt P56481); assay: Concentration of compound required to inhibit binding of [125I]J-BH-CCK-8 radioligand to CCKB in mouse fore brain membranes; type: cell membranes, Membrane
# T2 sequence (P56481 whole entry): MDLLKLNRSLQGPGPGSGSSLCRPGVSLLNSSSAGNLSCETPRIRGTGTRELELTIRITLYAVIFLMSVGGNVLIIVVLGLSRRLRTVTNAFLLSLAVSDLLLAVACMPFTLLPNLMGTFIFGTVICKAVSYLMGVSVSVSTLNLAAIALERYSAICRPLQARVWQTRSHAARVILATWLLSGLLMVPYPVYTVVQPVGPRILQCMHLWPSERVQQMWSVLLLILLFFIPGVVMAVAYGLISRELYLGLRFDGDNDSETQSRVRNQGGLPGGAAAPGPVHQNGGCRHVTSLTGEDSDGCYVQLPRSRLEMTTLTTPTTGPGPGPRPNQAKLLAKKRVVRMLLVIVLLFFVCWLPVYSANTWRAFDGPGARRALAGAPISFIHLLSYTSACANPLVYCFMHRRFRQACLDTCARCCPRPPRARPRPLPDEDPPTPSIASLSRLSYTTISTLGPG
SMILES,IC50 [1],IC50 [2]
C[C@H](NC(=O)C1C=C2c3cccc4[nH]cc(c34)CC2N(C)C1)C(=O)NCCc1ccccc1 (stereo not given in full),12 µM,> 80 µM
CC(C)C[C@H](NC(=O)[C@H](Cc1c[nH]c2ccccc12)NC(=O)OC(C)(C)C)C(=O)N[C@@H](CC(=O)O)C(=O)NCCc1ccccc1 (Boc-Trp-Leu-Asp-NHPhenethyl),3.5 µM,0.35 µM
CN1C[C@H](C(=O)N[C@]2(C)O[C@@]3(O)[C@@H]4CCCN4C(=O)[C@H](Cc4ccccc4)N3C2=O)C[C@@H]2c3cccc4[nH]cc(c34)C[C@H]21 [DIHYDROERGOTAMINE],> 80 µM,23 µM
CC(C)C[C@H]1C(=O)N2CCC[C@H]2[C@]2(O)O[C@](NC(=O)[C@@H]3C=C4c5cccc6[nH]cc(c56)C[C@H]4N(C)C3)(C(C)C)C(=O)N12 [ERGOCRYPTINE],> 80 µM,> 80 µM
CN1C[C@H](C(=O)N[C@]2(C)O[C@@]3(O)[C@@H]4CCCN4C(=O)[C@H](Cc4ccccc4)N3C2=O)C=C2c3cccc4[nH]cc(c34)C[C@H]21 [ERGOTAMINE],34 µM,17 µM
